Assay results as given in ChEMBL document CHEMBL1201862, “PubChem BioAssay data set” (2004).
The source made the active and inactive calls.

Key:
Genome polyprotein [1] = target: Genome polyprotein (Hepatitis C virus, UniProt Q2Q167); test: disruption of hepatitis C core self-association – biochemical, TR-FRET, dose response (AID 2159); parameters: species or system Hepacivirus hominis;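 further: blocks dimerization of HCV core protein measured by TR-FRET between tagged core106 pairs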
[2] = target: Sphingosine 1-phosphate receptor 2 (Homo sapiens, UniProt O95136); test: Dose Response Cell Based Assay for Agonists of the S1P2 Receptor. [Related pubchem assays: 729, 736, 843 ]; type: functional
Sphingosine 1-phosphate receptor 2, sequence (O95136 whole entry): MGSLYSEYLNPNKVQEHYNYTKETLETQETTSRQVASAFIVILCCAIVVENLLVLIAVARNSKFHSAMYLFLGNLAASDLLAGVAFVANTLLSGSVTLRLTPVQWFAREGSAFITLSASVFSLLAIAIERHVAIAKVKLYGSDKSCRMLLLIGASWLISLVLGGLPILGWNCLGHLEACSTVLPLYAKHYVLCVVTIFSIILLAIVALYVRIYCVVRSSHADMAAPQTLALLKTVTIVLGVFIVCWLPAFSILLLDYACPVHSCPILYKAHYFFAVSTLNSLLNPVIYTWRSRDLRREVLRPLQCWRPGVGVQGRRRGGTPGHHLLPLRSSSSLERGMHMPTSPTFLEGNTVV

[3] = target: Eukaryotic translation initiation factor 4E (Mus musculus, UniProt P63073); test: blockers of eIF4G binding by eIF4E – biochemical, TR-FRET, dose response (AID 855); type: functional;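 further: potency for disrupting eIF4E binding to eIF4GI seen as loss of FRET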
Eukaryotic translation initiation factor 4E, sequence (P63073 whole entry): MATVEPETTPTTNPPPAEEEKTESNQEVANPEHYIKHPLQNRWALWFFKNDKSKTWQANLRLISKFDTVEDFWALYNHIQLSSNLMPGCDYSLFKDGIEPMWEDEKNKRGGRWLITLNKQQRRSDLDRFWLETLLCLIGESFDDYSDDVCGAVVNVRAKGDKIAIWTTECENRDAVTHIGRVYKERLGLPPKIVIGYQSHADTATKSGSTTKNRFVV

[4] = Luminescence Cell-Based Dose Confirmation HTS to Identify Inhibitors of Platelet Dense Granule Release. [Related pubchem assays: 1663 (Primary HTS), 1678 (Summary of Project)]; type: functional
[5] = Fluorescence Cell-Based Dose Response to Identify Inhibitors of Thrombin Receptor-Activating Peptide SFLLRN-Mediated P-Selectin Induction on Platelets. [Related pubchem assays: 1663 (Primary HTS), 1889 (retest at dose ), 1891 (counterscreen), 1678 (Project Summary)]; type: functional
[6] = target: Luciferin 4-monooxygenase (Photinus pyralis, UniProt P08659); test: inhibition of purified Photinus pyralis luciferase – biochemical, luminescence, dose response (AID 1891)
Luciferin 4-monooxygenase, sequence (P08659 whole entry): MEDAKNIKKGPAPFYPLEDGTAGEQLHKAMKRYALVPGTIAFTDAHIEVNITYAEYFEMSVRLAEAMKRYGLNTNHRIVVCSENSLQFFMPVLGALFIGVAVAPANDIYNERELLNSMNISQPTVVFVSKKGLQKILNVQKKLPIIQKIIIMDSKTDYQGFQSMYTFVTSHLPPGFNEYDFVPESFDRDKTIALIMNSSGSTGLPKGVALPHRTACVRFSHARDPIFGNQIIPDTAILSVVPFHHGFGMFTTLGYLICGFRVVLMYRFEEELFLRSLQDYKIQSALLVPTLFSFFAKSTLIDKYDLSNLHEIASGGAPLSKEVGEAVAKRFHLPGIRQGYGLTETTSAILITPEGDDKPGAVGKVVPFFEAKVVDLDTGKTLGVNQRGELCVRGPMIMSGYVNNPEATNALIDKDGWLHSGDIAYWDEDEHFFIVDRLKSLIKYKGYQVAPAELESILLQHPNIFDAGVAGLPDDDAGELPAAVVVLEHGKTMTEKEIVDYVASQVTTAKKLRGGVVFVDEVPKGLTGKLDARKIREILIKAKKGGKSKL

[7] = target: Diphosphomevalonate decarboxylase (Streptococcus pneumoniae serotype 2 (strain D39 / NCTC 7466), UniProt Q9FD53); test: diphosphomevalonate decarboxylase inhibitor confirmation – biochemical, cuvette format, coupled NADH fluorescence (AID 1028); type: functional
[8] = target: T1, Replicative DNA helicase DnaB (Mycobacterium tuberculosis, UniProt P9WMR3); test: DnaB intein splicing inhibitors, dose response, biochemical, cell-free fluorescence (AID 449749); type: functional
T1 sequence (P9WMR3 whole entry): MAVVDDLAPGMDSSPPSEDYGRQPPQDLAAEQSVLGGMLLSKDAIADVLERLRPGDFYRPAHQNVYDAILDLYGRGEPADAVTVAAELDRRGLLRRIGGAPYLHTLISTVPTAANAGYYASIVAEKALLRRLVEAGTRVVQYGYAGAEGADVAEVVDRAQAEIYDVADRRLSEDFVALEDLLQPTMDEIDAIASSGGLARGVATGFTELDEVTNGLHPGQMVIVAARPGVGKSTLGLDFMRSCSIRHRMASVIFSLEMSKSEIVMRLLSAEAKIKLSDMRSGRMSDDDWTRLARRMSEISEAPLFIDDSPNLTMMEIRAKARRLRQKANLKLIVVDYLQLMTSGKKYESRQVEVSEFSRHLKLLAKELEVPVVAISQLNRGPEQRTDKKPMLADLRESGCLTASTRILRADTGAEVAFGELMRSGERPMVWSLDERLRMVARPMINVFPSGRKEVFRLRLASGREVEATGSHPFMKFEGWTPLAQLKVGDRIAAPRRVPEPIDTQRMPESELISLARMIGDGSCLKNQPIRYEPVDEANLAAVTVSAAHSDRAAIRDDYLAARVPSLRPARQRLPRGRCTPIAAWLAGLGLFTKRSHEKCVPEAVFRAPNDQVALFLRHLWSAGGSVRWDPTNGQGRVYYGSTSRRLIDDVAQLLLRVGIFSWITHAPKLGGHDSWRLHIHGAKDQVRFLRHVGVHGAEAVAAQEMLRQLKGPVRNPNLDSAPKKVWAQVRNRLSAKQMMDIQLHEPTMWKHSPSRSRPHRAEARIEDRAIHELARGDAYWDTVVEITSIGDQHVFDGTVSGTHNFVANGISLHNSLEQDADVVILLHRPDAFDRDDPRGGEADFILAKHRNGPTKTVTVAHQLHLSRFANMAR

[9] = target: Bifunctional protein GlmU (Mycobacterium tuberculosis, UniProt P9WMN3); test: Inhibitors of Mycobacterial Glucosamine-1-phosphate acetyl transferase (GlmU). Secondary screen.; parameters: species or system Mycobacterium tuberculosis H37Rv
Aminopeptidase N = target: T2, Aminopeptidase N (Plasmodium falciparum FcB1/Columbia, UniProt O96935); test: malaria alanyl aminopeptidase activity blockers – biochemical, fluorogenic H-Leu-NHMec substrate, 1536-well (AID 1445); parameters: species or system Plasmodium falciparum 3D7, 3D7
T2 sequence (O96935 whole entry): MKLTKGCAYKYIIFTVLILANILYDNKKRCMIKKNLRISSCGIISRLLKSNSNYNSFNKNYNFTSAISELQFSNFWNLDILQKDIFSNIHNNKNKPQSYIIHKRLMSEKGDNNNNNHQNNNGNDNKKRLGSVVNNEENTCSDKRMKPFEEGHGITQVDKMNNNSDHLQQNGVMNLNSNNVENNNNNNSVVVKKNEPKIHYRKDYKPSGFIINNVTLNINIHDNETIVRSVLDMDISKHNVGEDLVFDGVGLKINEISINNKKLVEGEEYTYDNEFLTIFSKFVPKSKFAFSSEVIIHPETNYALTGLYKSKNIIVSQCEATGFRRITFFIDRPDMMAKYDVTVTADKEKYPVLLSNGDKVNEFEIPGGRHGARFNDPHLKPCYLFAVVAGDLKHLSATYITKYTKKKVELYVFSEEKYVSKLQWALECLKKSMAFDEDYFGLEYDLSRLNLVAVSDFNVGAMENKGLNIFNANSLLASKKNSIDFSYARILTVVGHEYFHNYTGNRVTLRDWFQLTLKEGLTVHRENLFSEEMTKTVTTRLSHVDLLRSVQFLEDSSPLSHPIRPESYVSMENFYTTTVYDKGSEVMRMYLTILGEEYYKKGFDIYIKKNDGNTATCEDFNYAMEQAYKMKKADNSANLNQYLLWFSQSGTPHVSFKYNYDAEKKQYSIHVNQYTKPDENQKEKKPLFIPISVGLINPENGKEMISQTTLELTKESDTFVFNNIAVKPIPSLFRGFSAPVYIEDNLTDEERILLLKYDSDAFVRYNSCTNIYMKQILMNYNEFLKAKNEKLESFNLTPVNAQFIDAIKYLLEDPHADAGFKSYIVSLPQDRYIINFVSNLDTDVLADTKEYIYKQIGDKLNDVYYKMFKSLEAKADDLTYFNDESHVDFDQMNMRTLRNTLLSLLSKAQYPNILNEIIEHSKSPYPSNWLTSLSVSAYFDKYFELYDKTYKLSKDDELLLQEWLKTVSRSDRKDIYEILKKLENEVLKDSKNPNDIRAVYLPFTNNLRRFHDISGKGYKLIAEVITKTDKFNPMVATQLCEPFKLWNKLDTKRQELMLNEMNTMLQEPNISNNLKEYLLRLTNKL

Protein RecA = target: T3, Protein RecA (Mycobacterium tuberculosis, UniProt P9WHJ3); test: Fluorescence Cell-Free Homogeneous Dose Retest to Identify Inhibitors of RecA-Intein Splicing Activity. [Related pubchem assays (depositor defined):AID2097, AID2223, AID489010, AID492950]; type: functional
T3 sequence (P9WHJ3 whole entry): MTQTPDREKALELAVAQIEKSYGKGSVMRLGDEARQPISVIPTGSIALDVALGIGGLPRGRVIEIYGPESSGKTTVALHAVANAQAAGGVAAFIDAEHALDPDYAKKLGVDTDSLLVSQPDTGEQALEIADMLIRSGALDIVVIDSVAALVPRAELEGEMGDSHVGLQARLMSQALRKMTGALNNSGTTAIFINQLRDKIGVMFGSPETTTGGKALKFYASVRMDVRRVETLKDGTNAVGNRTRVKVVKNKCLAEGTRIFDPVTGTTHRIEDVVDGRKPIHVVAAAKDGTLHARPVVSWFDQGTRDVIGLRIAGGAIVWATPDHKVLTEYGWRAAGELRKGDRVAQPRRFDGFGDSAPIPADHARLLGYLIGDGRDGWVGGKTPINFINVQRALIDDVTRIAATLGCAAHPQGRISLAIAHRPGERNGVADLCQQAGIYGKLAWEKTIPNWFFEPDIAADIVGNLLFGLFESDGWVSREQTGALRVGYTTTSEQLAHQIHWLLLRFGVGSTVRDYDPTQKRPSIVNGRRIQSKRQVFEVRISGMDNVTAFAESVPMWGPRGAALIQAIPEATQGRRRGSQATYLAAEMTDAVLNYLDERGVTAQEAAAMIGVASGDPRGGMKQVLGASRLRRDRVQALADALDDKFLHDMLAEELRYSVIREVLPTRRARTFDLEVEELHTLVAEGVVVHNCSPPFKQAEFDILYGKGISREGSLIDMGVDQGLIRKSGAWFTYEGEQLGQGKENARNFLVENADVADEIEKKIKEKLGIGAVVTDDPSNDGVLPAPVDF

Genome polyprotein [10] = target: Genome polyprotein (dengue virus type 2, UniProt P29990); test: flavivirus cap methylation enzyme inhibition – biochemical, confirmation dose response, primary screen (AID 588689); type: functional
Genome polyprotein (dengue virus type 2, UniProt P29990), sequence (P29990 2492-3391 limits assumed): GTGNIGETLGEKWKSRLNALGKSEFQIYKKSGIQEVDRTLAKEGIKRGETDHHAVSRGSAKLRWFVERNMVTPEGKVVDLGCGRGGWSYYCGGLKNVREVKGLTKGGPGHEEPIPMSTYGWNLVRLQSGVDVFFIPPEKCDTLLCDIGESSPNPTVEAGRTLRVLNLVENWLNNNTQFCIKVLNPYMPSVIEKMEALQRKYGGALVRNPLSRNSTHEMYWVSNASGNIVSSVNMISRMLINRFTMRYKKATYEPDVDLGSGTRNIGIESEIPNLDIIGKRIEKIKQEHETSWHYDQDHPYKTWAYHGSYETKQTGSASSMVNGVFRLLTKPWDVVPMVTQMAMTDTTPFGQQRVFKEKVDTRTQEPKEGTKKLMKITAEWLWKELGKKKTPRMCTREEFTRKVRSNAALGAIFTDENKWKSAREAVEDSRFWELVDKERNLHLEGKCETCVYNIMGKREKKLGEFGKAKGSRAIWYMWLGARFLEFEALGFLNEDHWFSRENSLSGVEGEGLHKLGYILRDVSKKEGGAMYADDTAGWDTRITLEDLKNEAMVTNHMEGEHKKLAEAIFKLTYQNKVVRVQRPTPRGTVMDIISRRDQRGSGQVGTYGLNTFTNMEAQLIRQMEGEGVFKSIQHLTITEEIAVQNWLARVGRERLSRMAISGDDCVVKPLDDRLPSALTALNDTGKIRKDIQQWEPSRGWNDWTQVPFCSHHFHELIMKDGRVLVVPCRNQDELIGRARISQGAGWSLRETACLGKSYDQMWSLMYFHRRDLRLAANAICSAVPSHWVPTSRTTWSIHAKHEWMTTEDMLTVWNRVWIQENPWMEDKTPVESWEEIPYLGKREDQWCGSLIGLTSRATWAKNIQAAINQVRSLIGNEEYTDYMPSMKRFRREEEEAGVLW

[11] = target: Peroxisome proliferator-activated receptor gamma/Nuclear receptor coactivator 2 (Homo sapiens, UniProt P37231); test: (§1) TR-FRET dose response biochemical High Throughput Screening assay for agonists of the steroid receptor coactivator 2 (SRC-2) recruitment by the peroxisome proliferator-activated receptor gamma (PPAR gamma): non-selective agonists. [Related pubchem assays: 1297, 1032 ]; type: functional
Peroxisome proliferator-activated receptor gamma/Nuclear receptor coactivator 2, sequence (P37231 whole entry): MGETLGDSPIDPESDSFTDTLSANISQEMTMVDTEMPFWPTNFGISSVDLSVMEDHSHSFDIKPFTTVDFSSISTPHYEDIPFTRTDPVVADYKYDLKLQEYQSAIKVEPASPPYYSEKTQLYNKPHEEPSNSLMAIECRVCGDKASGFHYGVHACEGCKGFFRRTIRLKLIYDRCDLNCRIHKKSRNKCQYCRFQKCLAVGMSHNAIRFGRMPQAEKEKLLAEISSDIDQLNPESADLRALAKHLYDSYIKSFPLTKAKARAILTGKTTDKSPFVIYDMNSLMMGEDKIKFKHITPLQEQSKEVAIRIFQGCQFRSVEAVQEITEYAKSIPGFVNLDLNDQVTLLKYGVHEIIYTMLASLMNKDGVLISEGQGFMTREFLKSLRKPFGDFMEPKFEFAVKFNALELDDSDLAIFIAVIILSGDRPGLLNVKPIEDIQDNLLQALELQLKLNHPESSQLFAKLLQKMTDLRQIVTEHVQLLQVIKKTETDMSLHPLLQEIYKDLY
Peroxisome proliferator-activated receptor gamma/Nuclear receptor coactivator 2, sequence (Q15596 whole entry, further chain): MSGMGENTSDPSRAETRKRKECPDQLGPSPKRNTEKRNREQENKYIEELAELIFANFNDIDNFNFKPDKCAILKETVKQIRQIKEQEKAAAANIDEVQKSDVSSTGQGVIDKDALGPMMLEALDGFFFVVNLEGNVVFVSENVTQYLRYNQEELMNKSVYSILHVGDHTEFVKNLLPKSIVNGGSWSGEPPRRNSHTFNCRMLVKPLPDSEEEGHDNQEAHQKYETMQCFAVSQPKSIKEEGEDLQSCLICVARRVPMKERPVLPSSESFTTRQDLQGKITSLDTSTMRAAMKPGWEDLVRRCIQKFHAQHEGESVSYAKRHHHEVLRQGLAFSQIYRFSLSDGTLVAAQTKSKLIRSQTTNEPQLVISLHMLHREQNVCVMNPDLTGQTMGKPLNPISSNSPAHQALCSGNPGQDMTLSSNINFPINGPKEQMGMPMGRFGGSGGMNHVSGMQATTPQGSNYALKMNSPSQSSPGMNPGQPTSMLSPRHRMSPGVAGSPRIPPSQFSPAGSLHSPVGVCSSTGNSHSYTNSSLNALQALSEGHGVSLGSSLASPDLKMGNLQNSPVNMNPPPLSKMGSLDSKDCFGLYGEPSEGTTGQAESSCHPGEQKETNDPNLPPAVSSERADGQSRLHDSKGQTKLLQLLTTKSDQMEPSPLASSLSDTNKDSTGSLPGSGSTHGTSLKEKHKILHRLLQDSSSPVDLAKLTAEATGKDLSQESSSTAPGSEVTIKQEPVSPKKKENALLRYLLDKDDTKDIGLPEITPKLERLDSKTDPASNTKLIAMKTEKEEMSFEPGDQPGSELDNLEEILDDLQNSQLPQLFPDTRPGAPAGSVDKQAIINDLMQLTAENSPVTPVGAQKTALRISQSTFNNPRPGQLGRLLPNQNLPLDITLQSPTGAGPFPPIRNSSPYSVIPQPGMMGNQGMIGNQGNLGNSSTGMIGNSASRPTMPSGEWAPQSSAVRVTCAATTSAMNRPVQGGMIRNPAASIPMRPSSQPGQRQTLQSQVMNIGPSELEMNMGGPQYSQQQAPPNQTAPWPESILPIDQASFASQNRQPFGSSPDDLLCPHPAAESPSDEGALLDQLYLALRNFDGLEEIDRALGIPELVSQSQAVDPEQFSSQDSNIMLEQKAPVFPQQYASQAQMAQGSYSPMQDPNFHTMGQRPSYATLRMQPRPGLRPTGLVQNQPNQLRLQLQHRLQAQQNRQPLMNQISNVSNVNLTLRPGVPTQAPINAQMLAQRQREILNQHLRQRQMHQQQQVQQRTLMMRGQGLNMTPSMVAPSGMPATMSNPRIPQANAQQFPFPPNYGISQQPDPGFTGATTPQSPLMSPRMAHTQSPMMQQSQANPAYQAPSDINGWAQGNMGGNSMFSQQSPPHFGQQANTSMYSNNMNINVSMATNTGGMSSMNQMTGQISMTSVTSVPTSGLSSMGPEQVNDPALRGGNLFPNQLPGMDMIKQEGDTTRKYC

[12] = target: Peroxisome proliferator-activated receptor gamma/Nuclear receptor coactivator 3 (Homo sapiens, UniProt P37231); test: as §1, with “3 (SRC-3)” for “2 (SRC-2)”, “1301 (Confirmation screen.), 1048 (Primary screen.)]” for “1297, 1032 ]”; type: functional
[13] = target: Mitogen-activated protein kinase 10 (Homo sapiens, UniProt P53779); test: Dose response biochemical screening assay for inhibitors of c-Jun N-Terminal Kinase 3 (JNK3). [Related pubchem assays: 746 ]
[14] = target: Peroxisome proliferator-activated receptor gamma/Nuclear receptor coactivator 1 (Homo sapiens, UniProt P37231); test: as §1, with “1 (SRC-1)” for “2 (SRC-2)”, “assays (depositor defined):AID1300, AID1808, AID504735, AID631]” for “assays: 1297, 1032 ]”; type: protein assay
[15] = target: Tyrosine-protein phosphatase non-receptor type 7 (Homo sapiens, UniProt P35236); test: HePTP tyrosine phosphatase activity blockers – biochemical, absorbance, leukemia target, primary screen (AID 521); type: functional
Tyrosine-protein phosphatase non-receptor type 7, sequence (P35236 whole entry): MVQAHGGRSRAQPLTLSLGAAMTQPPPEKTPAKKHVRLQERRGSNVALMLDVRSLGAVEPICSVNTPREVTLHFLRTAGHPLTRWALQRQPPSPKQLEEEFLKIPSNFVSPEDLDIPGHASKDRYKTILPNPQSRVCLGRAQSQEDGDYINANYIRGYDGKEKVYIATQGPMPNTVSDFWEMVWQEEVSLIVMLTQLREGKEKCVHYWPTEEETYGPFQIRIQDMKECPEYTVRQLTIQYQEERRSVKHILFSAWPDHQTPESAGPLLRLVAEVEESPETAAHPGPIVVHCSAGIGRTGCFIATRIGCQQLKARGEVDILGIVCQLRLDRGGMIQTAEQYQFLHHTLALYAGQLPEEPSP

NS3 = NS3 (Hepatitis C virus, UniProt A3EZJ3); test: NS3h DNA-binding inhibition IC50 – biochemical, fluorescence polarization, ChemBridge library, dose response (AID 743264)
NS3, sequence (A3EZJ3 whole entry, the tested form may be a part): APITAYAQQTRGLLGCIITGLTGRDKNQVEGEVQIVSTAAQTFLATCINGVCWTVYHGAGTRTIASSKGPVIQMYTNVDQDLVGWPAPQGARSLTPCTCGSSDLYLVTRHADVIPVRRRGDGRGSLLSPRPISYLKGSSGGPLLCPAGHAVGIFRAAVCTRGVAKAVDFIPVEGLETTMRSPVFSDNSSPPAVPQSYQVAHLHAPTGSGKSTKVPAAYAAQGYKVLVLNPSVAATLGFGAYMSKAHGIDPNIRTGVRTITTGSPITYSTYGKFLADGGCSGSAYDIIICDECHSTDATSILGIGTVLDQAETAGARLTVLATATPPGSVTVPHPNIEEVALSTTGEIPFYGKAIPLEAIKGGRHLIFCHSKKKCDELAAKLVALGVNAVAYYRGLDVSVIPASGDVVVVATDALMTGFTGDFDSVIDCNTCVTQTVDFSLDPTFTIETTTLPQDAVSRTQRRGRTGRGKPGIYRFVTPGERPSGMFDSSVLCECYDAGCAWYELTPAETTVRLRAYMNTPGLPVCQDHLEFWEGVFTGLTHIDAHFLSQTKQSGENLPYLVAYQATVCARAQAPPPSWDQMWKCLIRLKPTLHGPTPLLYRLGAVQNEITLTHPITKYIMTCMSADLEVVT

[16] = target: T4, RNA-binding protein pos-1 (Caenorhabditis elegans, UniProt G5EF15); test: disruptors of C. elegans POS-1 RNA interaction – biochemical, fluorescence polarization, dose response (AID 1964);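 further: purified POS-1 fused to maltose binding protein made in E. coli; potency of compounds blocking POS-1 binding to fluorescent RNA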
T4 sequence (G5EF15 whole entry): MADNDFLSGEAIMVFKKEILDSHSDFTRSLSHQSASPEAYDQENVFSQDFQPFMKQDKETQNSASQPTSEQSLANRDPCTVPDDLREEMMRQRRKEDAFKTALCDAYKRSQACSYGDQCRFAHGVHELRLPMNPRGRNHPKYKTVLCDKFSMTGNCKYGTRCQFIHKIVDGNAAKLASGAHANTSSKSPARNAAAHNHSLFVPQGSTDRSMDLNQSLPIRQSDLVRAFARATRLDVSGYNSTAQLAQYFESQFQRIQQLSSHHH

[17] = target: T5, Zinc finger protein mex-5 (Caenorhabditis elegans, UniProt Q9XUB2); test: potency of MEX-5 RNA-binding blockers – biochemical, C. elegans, fluorescence polarization, dose response (AID 1960)
T5 sequence (Q9XUB2 whole entry): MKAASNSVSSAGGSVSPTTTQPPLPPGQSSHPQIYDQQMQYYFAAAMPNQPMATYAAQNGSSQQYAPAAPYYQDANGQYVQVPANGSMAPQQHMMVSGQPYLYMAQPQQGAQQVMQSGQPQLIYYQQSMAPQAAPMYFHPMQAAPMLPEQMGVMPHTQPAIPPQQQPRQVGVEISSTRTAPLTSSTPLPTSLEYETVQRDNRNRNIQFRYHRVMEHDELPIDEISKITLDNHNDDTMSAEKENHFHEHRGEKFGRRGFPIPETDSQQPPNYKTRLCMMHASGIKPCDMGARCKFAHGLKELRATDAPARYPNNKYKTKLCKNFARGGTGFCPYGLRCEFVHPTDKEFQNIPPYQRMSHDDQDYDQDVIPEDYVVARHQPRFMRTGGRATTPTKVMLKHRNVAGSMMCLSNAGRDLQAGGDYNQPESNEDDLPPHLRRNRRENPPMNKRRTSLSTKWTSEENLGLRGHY

Estrogen receptor = target: T6, Estrogen receptor (Homo sapiens, UniProt P03372);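 further: potency for inhibiting coactivator peptide recruitment to the receptor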
T6 sequence (P03372 whole entry): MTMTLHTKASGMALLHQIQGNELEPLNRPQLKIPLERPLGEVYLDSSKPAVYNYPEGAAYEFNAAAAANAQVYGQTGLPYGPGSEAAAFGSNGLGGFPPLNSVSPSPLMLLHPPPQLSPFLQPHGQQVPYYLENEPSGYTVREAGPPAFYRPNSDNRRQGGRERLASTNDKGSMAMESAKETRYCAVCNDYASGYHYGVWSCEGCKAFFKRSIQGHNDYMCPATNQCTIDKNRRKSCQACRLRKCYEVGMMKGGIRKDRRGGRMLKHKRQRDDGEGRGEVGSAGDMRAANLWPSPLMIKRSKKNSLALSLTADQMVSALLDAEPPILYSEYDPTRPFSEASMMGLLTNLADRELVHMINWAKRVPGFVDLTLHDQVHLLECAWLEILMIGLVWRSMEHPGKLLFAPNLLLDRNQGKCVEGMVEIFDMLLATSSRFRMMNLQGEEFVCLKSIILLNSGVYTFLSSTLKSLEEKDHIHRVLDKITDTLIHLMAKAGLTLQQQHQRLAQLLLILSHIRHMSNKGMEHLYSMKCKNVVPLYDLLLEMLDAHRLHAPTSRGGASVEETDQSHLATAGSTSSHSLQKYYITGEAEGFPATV

## Cc1ccc(-c2nc(=S)c3c(n2Cc2ccco2)CC(C)(C)OC3)cc1
Genome polyprotein [1]
  IC50: > 49.8 µM (not active)

## CCOc1cccc(OCCCCn2ccnc2)c1
[2]
  EC50: > 50 µM (not active)
[3]
  IC50: > 64 µM (inactive)

## CCC(=O)Nc1cccc(NC(=O)c2ccccc2Cl)c1
[4]
  EC50: 3.42 µM (active)
[5]
  EC50: < 30 µM (active)
[6]
  EC50: > 112 µM (not active)

## O=C(c1ccc(-n2sc3ccccc3c2=O)cc1)N1CCCC1
[7]
  IC50: 8.66 µM (active)

## CC1=NN(c2ccc(Cl)c(C(=O)O)c2)C(=O)/C1=C\c1ccc(-c2ccc(C(=O)O)cc2)o1
[8]
  AC50: 0.484 µM (active)
[9]
  IC50: 94.1 µM (active)
Aminopeptidase N
  IC50: 2.41 µM (active)
Protein RecA
  EC50: 0.4 µM (active)
Genome polyprotein [10]
  IC50: 19.4 µM (active)

## CC(=O)c1sc(Nc2ccccn2)nc1C
[11]
  EC50: > 79.4 µM (not active)
[12]
  EC50: > 79.4 µM (not active)
[13]
  IC50: 40.3 µM (not active)
[14]
  EC50: > 79.4 µM (inactive)

## Cc1cc(C(=O)O)ccc1-n1c(C)ccc1C
[15]
  IC50: 0.76 µM (active)
NS3
  IC50: 6.25 µM (inactive)
[16]
  EC50: 5.94 µM (active)
[17]
  EC50: 8.59 µM (active)
Estrogen receptor
  IC50: 7.53 µM (active)
